Reference: patent US7132417B2, “2-phenyl-1-[4-(2-aminoethoxy)-benzyl]-indoles as estrogenic agents” (Wyeth, priority 1996, dated 2006)
Where two headings read alike, the source gives them in different places. Blank lines part the entries; values can stand above or below the compound they belong to.

How the values were obtained:
estrogen receptor [1] = molecular target: T1, estrogen receptor (Homo sapiens, UniProt P03372); assay: In vitro estrogen receptor binding assay ([3H]-17β-estradiol competition); parameters: expressed in transfected cells; host or cells: CHO cells (100,000 g cytosol); details: read-out: Receptor Binding IC50's
T1 sequence (P03372 1-595): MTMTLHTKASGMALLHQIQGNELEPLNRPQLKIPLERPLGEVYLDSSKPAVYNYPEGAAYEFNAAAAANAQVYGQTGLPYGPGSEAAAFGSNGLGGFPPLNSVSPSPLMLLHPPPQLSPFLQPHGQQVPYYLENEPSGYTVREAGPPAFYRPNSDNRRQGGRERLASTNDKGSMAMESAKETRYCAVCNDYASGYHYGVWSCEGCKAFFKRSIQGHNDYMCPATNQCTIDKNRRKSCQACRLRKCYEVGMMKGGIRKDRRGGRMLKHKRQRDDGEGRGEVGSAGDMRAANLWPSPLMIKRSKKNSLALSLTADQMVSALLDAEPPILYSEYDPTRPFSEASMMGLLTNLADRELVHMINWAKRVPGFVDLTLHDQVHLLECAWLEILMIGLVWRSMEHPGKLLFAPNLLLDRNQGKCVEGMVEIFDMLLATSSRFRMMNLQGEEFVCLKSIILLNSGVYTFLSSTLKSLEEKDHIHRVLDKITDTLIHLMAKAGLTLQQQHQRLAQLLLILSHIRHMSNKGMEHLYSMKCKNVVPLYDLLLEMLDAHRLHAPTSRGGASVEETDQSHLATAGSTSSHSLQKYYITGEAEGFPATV
Procedure: In Vitro Estrogen Receptor Binding Assay
CHO cells overexpressing the estrogen receptor were grown in 150 mm^2 dishes in DMEM+10% dextran coated charcoal, stripped fetal bovine serum. The plates were washed twice with PBS and once with 10 mM Tris-HCl, pH 7.4, 1 mM EDTA. Cells were harvested by scraping the surface and then the cell suspension was placed on ice. Cells were disrupted with a hand-held motorized tissue grinder using two, 10-second bursts. […] The cytosol was then frozen and stored at −80° C. Protein concentration of the cytosol was estimated using the BCA assay with reference standard protein.
100 uG/100 uL of the receptor preparation was aliquoted per well. […] The plate was incubated at room temperature for 2.5 h. […] 200 uL of the supernatant solution was then removed for scintillation counting. Samples were counted to 2% or 10 minutes, whichever occurs first. […] Also, wells containing radioactivity but no cytosol were processed with charcoal to estimate unremovable DPM of [^3H]
Counts per minute (CPM) of radioactivity were automatically converted to disintegrated per minute (DPM) by the Beckman LS 7500 Scintillation Counter using a set of quenched standards to generate a H No. for each sample.
For the generation of IC50 curves, % binding is plotted vs compound. […] For a description of these methods, see Hulme, E. C., ed. […] Receptor-Ligand Interactions: A Practical Approach. IRL Press, New York. (see especially chapter 8).

estrogen receptor [2] = molecular target: T1, estrogen receptor; assay: 2X VIT ERE infection (luciferase) assay; assay type: cell-based; parameters: expressed in transfected cells; host or cells: Chinese Hamster Ovary cells (CHO), stably transfected; details: for Infection Luciferase Activity 1 uM + 17β estradiol: 1 uM compound + 1 nM 17β-estradiol (test for estrogen antagonism); for Infection Luciferase Activity 1 uM: 1 uM compound, percentage of activity as compared to 17β-estradiol
Procedure: Method No. 18 2X VIT ERE Infection Assay Cell Maintenance and Treatment
Chinese Hamster Ovary cells (CHO) which had been stably transfected with the human estrogen receptor were maintained in DMEM+10% fetal bovine serum (FBS). 48 h prior to treatment the growth medium was replaced with DMEM lacking phenol red +10% dextran coated charcoal stripped FBS (treatment medium). Cells were plated at a density of 5000 cells/well in 96-well plates containing 200 µL of medium/well.
Reporter DNA (Promega plasmid pGL2 containing two tandem copies of the vitellogenin ERE in front of the minimal thymidine kinase promoter driving the luciferase gene) was combined with the B-galactosidase expression plasmid pCH110 (Pharmacia) and carrier DNA (pTZ18U) in the following ratio:
20 uL of this mixture was added to each well of cells and remained on the cells for 16 h. […] Each treatment condition was performed on 8 wells (n=8) which were incubated for 24 h prior to the luciferase assay.
After removing the PBS, 25 uL of Promega lysis buffer was added to each well and allowed to stand at room temperature for 15 min, followed by 15 min at −80° C. and 15 min at 37° C. 20 uL of lysate was transferred to an opaque 96 well plate for luciferase activity evaluation and the remaining lysate (5 uL) was used for the B-galactosidase activity evaluation (normalize transfection). The luciferan substrate (Promega) was added in 100 uL aliquots to each well automatically by the luminometer and the light produced (relative light units) was read 10 seconds after addition.
To the remaining 5 uL of lysate 45 uL of PBS was added. Then 50 uL of Promega B-galactosidase 2× assay buffer was added, mixed well and incubated at 37° C. for 1 hour. A plate containing a standard curve (0.1 to 1.5 milliunits in triplicate) was set up for each experimental run. The plates were analyzed on a Molecular Devices spectrophotometric plate reader at 410 nm. The optical densities for the unknown were converted to milliunits of activity by mathematical extrapolation from the standard curve.
The luciferase data was generated as relative light units (RLUs) accumulated during a 10 second measurement and automatically transferred to a JMP (SAS Inc) file where background RLUs were subtracted. The B-galactosidase values were automatically imported into the file and these values were divided into the RLUs to normalize the data. The mean and standard deviations were determined from a n=8 for each treatment. […] These techniques are described by Tzukerman, M. T., Esty, A., Santiso-Mere, D., Danielian, P., Parker, M. G., Stein, R. B., Pike, J. W. and McDonnel, D. P. (1994).

[3] = tested on: Immature Sprague-Dawley rats; assay: Rat uterotrophic/antiuterotrophic bioassay; assay type: in vivo; details: daily ip; for Uterine wt mg 100 uG cmpd + 1 uG 17β-estradiol: 100 uG compound + 1 uG 17β-estradiol; for Uterine wt mg 100 uG cmpd: 100 uG compound, immature female rats, uterine wet weight
Procedure: Method No. 19 Rat Uterotrophic/Antiuterotrophic Bioassay
The estrogenic and antiestrogenic properties of the compounds were determined in an immature rat uterotrophic assay (4 day) that (as described previously by L. J. Black and R. L. Goode, Life Sciences, 26, 1453(1980)). Immature Sprague-Dawley rats (female, 18 days old) were tested in groups of six. […] On day 4 the animals were sacrificed by CO2 asphyxiation and their uteri were removed and stripped of excess lipid, any fluid removed and the wet weight determined. A small section of one horn was submitted for histology and the remainder used to isolate total RNA in order to evaluate complement component 3 gene expression.

Ishikawa cells = assay: Ishikawa cell alkaline phosphatase assay; assay type: cell-based, human; details: for % Activation with 1 nM 17β-estradiol: compound + 1 nM 17β-estradiol (antiestrogen test)
Procedure: Cells were treated for 48 h prior to assay. […] Sample population for at each dose was n=8. […] Plates are placed at -80° C. for a minimum of 15 minutes. Plates are thawed at 37° C. followed by the addition of 150 μL of 0.1 M Tris-HCl, pH 9.8, containing 4 mM para-nitrophenylphosphate (pNPP) to each well (final concentration, 3 mM pNPP). Absorbance and slope calculations were made using the […] Application program (Bio-Tek Instruments, Inc., Winooski, Vt.). […] The four listed in the following were used as reference standards: A description of these methods is described by Holinka, […]., Kuramoto, H. and Gurpide, E. (1986) Effects of steroid hormones and antisteroids on alkaline phosphatase activity in human endometrial cancer cells (Ishikawa Line). Cancer Research, 46:2771-2774, and by […]. and […] simple and sensitive microtiter plate estrogen bioassay based on stimulation alkaline phosphatase in Ishikawa cells; […] Endocrinology, 6:2757-2762.

Structure (SMILES): Cc1c(-c2ccc(OC3CCCC3)cc2)n(Cc2ccc(OCCN3CCCCC3)cc2)c2ccc(O)cc12 [compound 122, 2-(4-Cyclopenyloxy-phenyl)-3-methyl-1-[4-(2-piperidin-1-yl-ethoxy)-benzyl]-1H-indol-5-ol]
IC50 (estrogen receptor [1]): 80 nM
Infection Luciferase Activity 1 uM + 17β estradiol (estrogen receptor [2]): 5%
Infection Luciferase Activity 1 uM (estrogen receptor [2]): 1%
Uterine wt mg 100 uG cmpd + 1 uG 17β-estradiol [3]: 38.7 mg
Uterine wt mg 100 uG cmpd [3]: 46.7 mg

Structure (SMILES): Cc1c(-c2ccc(O)cc2)n(Cc2ccc(OCCN(C)C)cc2)c2ccc(O)cc12 [Example No. 100, 2-(4-Hydroxy-phenyl)-3-methyl-1-[4-(2-dimethyl-1-yl-ethoxy)-benzyl]-1H-indol-5-ol]
Uterine wt mg 100 uG cmpd + 1 uG 17β-estradiol [3]: 68.7 mg
Uterine wt mg 100 uG cmpd [3]: 59.9 mg

Structure (SMILES): Cc1c(-c2ccc(O)cc2)n(Cc2ccc(OCCN3CCCCCC3)cc2)c2ccc(O)cc12 [Example No. 98, 1-[4-(2-Azepan-1-yl-ethoxy)-benzyl]-2-(4-hydroxy-phenyl)-3-methyl-1H-indol-5-ol]
% Activation with 1 nM 17β-estradiol (Ishikawa cells): activity (1% with 1 nM 17β-estradiol)

EC50 (Ishikawa cells; reference standards, read-out: ED50 values (95% C.I.), estrogenic activity by the alkaline phosphatase method): 1.42 nM
Structure (SMILES): C[C@]12CC[C@@H]3c4ccc(O)cc4CC[C@H]3[C@@H]1CC[C@H]2O [17α-estradiol]

Structure (SMILES): CCN(CC)CCOc1ccc(Cn2c(-c3ccc(O)cc3)c(C)c3cc(O)ccc32)cc1 [compound 101, 2-(4-Hydroxy-phenyl)-3-methyl-1-[4-(2-diethyl-1-yl-ethoxy)-benzyl]-1H-indol-5-ol]
Uterine wt mg 100 uG cmpd + 1 uG 17β-estradiol [3]: 71.0 mg
Uterine wt mg 100 uG cmpd [3]: 65.1 mg

Structure (SMILES): CC/C(=C(\c1ccccc1)c1ccc(OCCN(C)C)cc1)c1ccccc1 [tamoxifen]
Uterine wt mg 100 uG cmpd [3]: 71.4 mg
% Activation with 1 nM 17β-estradiol (Ishikawa cells): activity (45% with 1 nM 17β-estradiol)
% Activation (Ishikawa cells; compound alone, percent of response related to 1 nM 17β-estradiol): 0%

Structure (SMILES): Cc1c(-c2ccc(O)cc2)n(Cc2ccc(OCC[N+](C)(C)C)cc2)c2ccc(O)cc12.[I-] [compound 106, 2-(4-Hydroxy-phenyl)-3-methyl-1-[4-(2-dimethyl-1-yl-ethoxy)-benzyl]-1H-indol-5-ol methiodide]
IC50 (estrogen receptor [1]; cytosol of CHO cells overexpressing the estrogen receptor, [3H]17β-estradiol): 100 nM
Infection Luciferase Activity 1 uM + 17β estradiol (estrogen receptor [2]): 81%
Infection Luciferase Activity 1 uM (estrogen receptor [2]): 10%

Structure (SMILES): Oc1ccc(-c2c(Cl)c3cc(O)ccc3n2Cc2ccc(OCCN3CCCCCC3)cc2)cc1 [compound 135, 3-Chloro-2-(4-hydroxy-phenyl)-1-[4-(2-azepan-1-yl-ethoxy)-benzyl]-1H-indol-5-ol]
IC50 (estrogen receptor [1]): 29 nM
Infection Luciferase Activity 1 uM + 17β estradiol (estrogen receptor [2]): 3%
Infection Luciferase Activity 1 uM (estrogen receptor [2]): 7%

Structure (SMILES): Cc1c(-c2ccc(OC(F)(F)F)cc2)n(Cc2ccc(OCCN3CCCCC3)cc2)c2ccc(O)cc12 [compound 132, 3-Methyl-1-[4-(2-piperidin-1-yl-ethoxy)-benzyl]-2-(4-trifluoromethoxy-phenyl)-1H-indole-5-ol]
IC50 (estrogen receptor [1]): 50 nM
Infection Luciferase Activity 1 uM + 17β estradiol (estrogen receptor [2]): −2%
Infection Luciferase Activity 1 uM (estrogen receptor [2]): −5%

Structure (SMILES): Cc1c(-c2ccccc2)n(Cc2ccc(OCCN3CCCCC3)cc2)c2ccccc12 [compound 85, 4-{3-Methyl-1-[4-(2-piperidin-1-yl-ethoxy)-benzyl]-1H-indole}]
Infection Luciferase Activity 1 uM + 17β estradiol (estrogen receptor [2]): 43%
Infection Luciferase Activity 1 uM (estrogen receptor [2]): −2%
Uterine wt mg 100 uG cmpd + 1 uG 17β-estradiol [3]: 92.4 mg
Uterine wt mg 100 uG cmpd [3]: 41.1 mg

Structure (SMILES): Cc1cc(O)ccc1-c1c(Cl)c2cc(O)ccc2n1Cc1ccc(OCCN2CCCCC2)cc1 [compound 136, 3-Chloro-2-(4-hydroxy-2-methyl-phenyl)-1-[4-(2-piperidin-1-yl-ethoxy)-benzyl]-1H-indol-5-ol]
IC50 (estrogen receptor [1]): 13 nM
Infection Luciferase Activity 1 uM + 17β estradiol (estrogen receptor [2]): 10%
Infection Luciferase Activity 1 uM (estrogen receptor [2]): 16%

Structure (SMILES): O=C(c1ccc(OCCN2CCCCC2)cc1)c1c(-c2ccc(O)cc2)sc2cc(O)ccc12 [raloxifene]
% Activation with 1 nM 17β-estradiol (Ishikawa cells): activity (5% with 1 nM 17β-estradiol)
